Source: ChEMBL document CHEMBL1201862, “PubChem BioAssay data set” (2004)
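Cells were grown in 96-well plates and exposed to each compound for 48 hours at five concentrations; endpoints were interpolated linearly between bracketing concentrations, or set to the highest concentration if not reached. GI50 marks 50% less growth.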 Activity calls are given as the source filed them. Cut-off read from the data, not from the text of the source: active = GI50 up to about 1.1 µM and inactive = higher.

Legend:
Assay in all cases: inhibition of tumour cell growth, NCI panel, 48 h
A498 = tested on: A498
SR = tested on: SR
SF-268 = tested on: SF-268
MOLT-4 = tested on: MOLT-4
RPMI-8226 = tested on: RPMI-8226
KM-20L2 = tested on: KM-20L2
XF498 = tested on: XF498
HCT-15 = tested on: HCT-15
HOP-92 = tested on: HOP-92
NCI-H23 = tested on: NCI-H23
CCRF-CEM = tested on: CCRF-CEM
SK-MEL-5 = tested on: SK-MEL-5
SK-OV-3 = tested on: SK-OV-3
SNB-78 = tested on: SNB-78
DMS-114 = tested on: DMS-114
ACHN = tested on: ACHN
NCI-H460 = tested on: NCI-H460
DMS-273 = tested on: DMS-273
U-251 = tested on: U-251
SW-620 = tested on: SW-620
UO-31 = tested on: UO-31
IGROV-1 = tested on: IGROV-1
786-0 = tested on: 786-0
SNB-19 = tested on: SNB-19
LOX IMVI = tested on: LOX IMVI
RXF 393 = tested on: RXF 393
SNB-75 = tested on: SNB-75
HT-29 = tested on: HT-29
OVCAR-5 = tested on: OVCAR-5
SN12C = tested on: SN12C
M14 = tested on: M14
SF-295 = tested on: SF-295
TK-10 = tested on: TK-10
HCC 2998 = tested on: HCC 2998
EKVX = tested on: EKVX
SK-MEL-2 = tested on: SK-MEL-2
SF-539 = tested on: SF-539
RXF 631 = tested on: RXF 631
LXFL 529 = tested on: LXFL 529
HL-60 = tested on: HL-60
KM12 = tested on: KM12
OVCAR-3 = tested on: OVCAR-3
SK-MEL-28 = tested on: SK-MEL-28
COLO 205 = tested on: COLO 205
K562 = tested on: K562
A549 = tested on: A549
UACC-257 = tested on: UACC-257
NCI-H226 = tested on: NCI-H226
OVCAR-8 = tested on: OVCAR-8
M19-MEL = tested on: M19-MEL
OVCAR-4 = tested on: OVCAR-4
HOP-62 = tested on: HOP-62
CAKI-1 = tested on: CAKI-1
Malme-3M = tested on: Malme-3M
HCT-116 = tested on: HCT-116
DLD-1 = tested on: DLD-1
NCI-H522 = tested on: NCI-H522
UACC-62 = tested on: UACC-62
MDA-MB-231 = tested on: MDA-MB-231
BT-549 = tested on: BT-549
MDA-MB-435 = tested on: MDA-MB-435
T47D = tested on: T47D
Hs-578T = tested on: Hs-578T
MCF7 = tested on: MCF7
PC-3 = tested on: PC-3
DU-145 = tested on: DU-145
NCI/ADR-RES = tested on: NCI/ADR-RES
MDA-N = tested on: MDA-N

`Cc1cc(C(=C2C=CC(=[N+](C)C)C=C2)c2ccc([N+](C)(C)C)cc2)ccc1N(C)C` was tested, and the GI50 (A498) was 18.5 µM (inactive), the GI50 (SR) was 1.62 µM (inactive) and the GI50 (SF-268) was 11.6 µM (inactive). For the same molecule, the GI50 (MOLT-4) was 4.28 µM (inactive), the GI50 (RPMI-8226) was 2.04 µM (inactive) and the GI50 (KM-20L2) was 5.48 µM (inactive). The GI50 (XF498) was 1.36 µM (inactive), the GI50 (HCT-15) was 33 µM and the GI50 (HOP-92) was 10.9 µM (inactive). For the same molecule, the GI50 (NCI-H23) was 10.1 µM (inactive), the GI50 (CCRF-CEM) was 2.48 µM (inactive) and the GI50 (SK-MEL-5) was 11.8 µM (inactive). The GI50 (SK-OV-3) was 15.8 µM (inactive), the GI50 (SNB-78) was 10.7 µM (inactive) and the GI50 (DMS-114) was 4.67 µM (inactive). For the same molecule, the GI50 (ACHN) was 10.7 µM (inactive), the GI50 (NCI-H460) was 3.98 µM (inactive) and the GI50 (DMS-273) was 5.01 µM (inactive). For the same molecule, the GI50 (U-251) was 5.53 µM (inactive), the GI50 (SW-620) was 5.31 µM (inactive) and the GI50 (UO-31) was 26.3 µM (inactive). The GI50 (IGROV-1) was 12.3 µM (inactive), the GI50 (786-0) was 21.6 µM (inactive) and the GI50 (SNB-19) was 24 µM (inactive). For the same molecule, the GI50 (LOX IMVI) was 4.79 µM (inactive), the GI50 (RXF 393) was 5.65 µM (inactive) and the GI50 (SNB-75) was 2.65 µM (inactive). For the same molecule, the GI50 (HT-29) was 5.08 µM (inactive), the GI50 (OVCAR-5) was 21.9 µM (inactive) and the GI50 (SN12C) was 5.07 µM (inactive). For the same molecule, the GI50 (M14) was 10.4 µM (inactive), the GI50 (SF-295) was 5.2 µM (inactive) and the GI50 (TK-10) was 1.57 µM (inactive). For the same molecule, the GI50 (HCC 2998) was 13.8 µM (inactive), the GI50 (EKVX) was 4.32 µM (inactive) and the GI50 (SK-MEL-2) was 15.2 µM (inactive). For the same molecule, the GI50 (SF-539) was 10.8 µM (inactive), the GI50 (RXF 631) was 7.91 µM (inactive) and the GI50 (LXFL 529) was 6.98 µM (inactive). The GI50 (HL-60) was 2.3 µM (inactive), the GI50 (KM12) was 4.66 µM (inactive) and the GI50 (OVCAR-3) was 12 µM (inactive). For the same molecule, the GI50 (SK-MEL-28) was 11.3 µM (inactive), the GI50 (COLO 205) was 10.1 µM (inactive) and the GI50 (K562) was 2.07 µM (inactive). The GI50 (A549) was 4.33 µM (inactive), the GI50 (UACC-257) was 12.1 µM (inactive) and the GI50 (NCI-H226) was 16 µM (inactive). For the same molecule, the GI50 (OVCAR-8) was 5.08 µM (inactive), the GI50 (M19-MEL) was 5.52 µM (inactive) and the GI50 (OVCAR-4) was 15.8 µM (inactive). For the same molecule, the GI50 (HOP-62) was 25.2 µM (inactive), the GI50 (CAKI-1) was 18.2 µM (inactive) and the GI50 (Malme-3M) was 15.8 µM (inactive). For the same molecule, the GI50 (HCT-116) was 3.23 µM (inactive), the GI50 (DLD-1) was 6.65 µM (inactive) and the GI50 (NCI-H522) was 15.9 µM (inactive). For the same molecule, the GI50 (UACC-62) was 5.55 µM (inactive).
With `COC1C(CO)OC(n2c3c(Cl)cccc3c3c4c(c5c6cccc(Cl)c6[nH]c5c32)C(=O)NC4=O)C(O)C1O` (stereo not given) the GI50 (A498) was 0.158 µM (active), the GI50 (SR) was 0.0282 µM (active) and the GI50 (SF-268) was 0.149 µM (active). The GI50 (MOLT-4) was 0.0498 µM (active), the GI50 (MDA-MB-231) was 0.276 µM (active) and the GI50 (RPMI-8226) was 0.242 µM (active). The GI50 (KM-20L2) was 0.586 µM (active), the GI50 (XF498) was 0.27 µM (active) and the GI50 (HCT-15) was 0.401 µM. For the same molecule, the GI50 (BT-549) was 0.162 µM (active), the GI50 (HOP-92) was 0.215 µM (active) and the GI50 (NCI-H23) was 0.153 µM (active). For the same molecule, the GI50 (CCRF-CEM) was 0.0367 µM (active), the GI50 (SK-MEL-5) was 0.157 µM (active) and the GI50 (SK-OV-3) was 0.303 µM (active). The GI50 (SNB-78) was 0.631 µM (active), the GI50 (DMS-114) was 0.258 µM (active) and the GI50 (ACHN) was 0.113 µM (active). The GI50 (NCI-H460) was 0.177 µM (active), the GI50 (DMS-273) was 0.208 µM (active) and the GI50 (U-251) was 0.173 µM (active). For the same molecule, the GI50 (SW-620) was 0.0849 µM (active), the GI50 (MDA-MB-435) was 0.306 µM (active) and the GI50 (UO-31) was 0.296 µM (active). For the same molecule, the GI50 (IGROV-1) was 0.299 µM (active), the GI50 (786-0) was 0.133 µM (active) and the GI50 (SNB-19) was 0.213 µM (active). The GI50 (T47D) was 0.154 µM (active), the GI50 (LOX IMVI) was 0.116 µM (active) and the GI50 (Hs-578T) was 0.31 µM (active). For the same molecule, the GI50 (RXF 393) was 0.225 µM (active), the GI50 (SNB-75) was 0.234 µM (active) and the GI50 (HT-29) was 0.244 µM (active). For the same molecule, the GI50 (OVCAR-5) was 0.796 µM (active), the GI50 (SN12C) was 0.104 µM (active) and the GI50 (M14) was 0.333 µM (active). The GI50 (SF-295) was 0.286 µM (active), the GI50 (TK-10) was 0.47 µM (active) and the GI50 (HCC 2998) was 0.367 µM (active). For the same molecule, the GI50 (EKVX) was 0.463 µM (active), the GI50 (SK-MEL-2) was 0.386 µM (active) and the GI50 (SF-539) was 0.195 µM (active). For the same molecule, the GI50 (RXF 631) was 0.249 µM (active), the GI50 (LXFL 529) was 0.33 µM (active) and the GI50 (HL-60) was 0.22 µM (active). The GI50 (KM12) was 0.614 µM (active), the GI50 (MCF7) was 0.1 µM (active) and the GI50 (OVCAR-3) was 0.292 µM (active). For the same molecule, the GI50 (SK-MEL-28) was 0.337 µM (active), the GI50 (COLO 205) was 0.351 µM (active) and the GI50 (PC-3) was 0.227 µM (active). The GI50 (K562) was 0.142 µM (active), the GI50 (A549) was 0.298 µM (active) and the GI50 (DU-145) was 0.202 µM (active). For the same molecule, the GI50 (NCI/ADR-RES) was 0.444 µM (active), the GI50 (UACC-257) was 0.219 µM (active) and the GI50 (NCI-H226) was 0.187 µM (active). The GI50 (OVCAR-8) was 0.177 µM (active), the GI50 (M19-MEL) was 0.274 µM (active) and the GI50 (OVCAR-4) was 0.337 µM (active). The GI50 (HOP-62) was 0.177 µM (active), the GI50 (CAKI-1) was 0.169 µM (active) and the GI50 (Malme-3M) was 0.223 µM (active). The GI50 (HCT-116) was 0.097 µM (active), the GI50 (DLD-1) was 0.568 µM (active) and the GI50 (MDA-N) was 0.324 µM (active). For the same molecule, the GI50 (NCI-H522) was 0.21 µM (active) and the GI50 (UACC-62) was 0.113 µM (active).
In the case of `CCN(CC)C1CC(n2cc(C)c(=O)[nH]c2=O)OC1CO` (stereo not given), the GI50 (A498) was > 100 µM (inactive), the GI50 (SR) was > 100 µM (inactive) and the GI50 (SF-268) was > 100 µM (inactive). For the same molecule, the GI50 (MOLT-4) was > 100 µM (inactive), the GI50 (RPMI-8226) was > 100 µM (inactive) and the GI50 (XF498) was > 100 µM (inactive). The GI50 (HOP-92) was > 100 µM (inactive), the GI50 (NCI-H23) was > 100 µM (inactive) and the GI50 (CCRF-CEM) was > 100 µM (inactive). For the same molecule, the GI50 (SK-OV-3) was > 100 µM (inactive), the GI50 (SNB-78) was > 100 µM (inactive) and the GI50 (DMS-114) was > 100 µM (inactive). The GI50 (NCI-H460) was > 100 µM (inactive), the GI50 (DMS-273) was > 100 µM (inactive) and the GI50 (UO-31) was > 100 µM (inactive). The GI50 (IGROV-1) was > 100 µM (inactive), the GI50 (786-0) was > 100 µM (inactive) and the GI50 (SNB-75) was > 100 µM (inactive). The GI50 (SN12C) was > 100 µM (inactive), the GI50 (M14) was > 100 µM (inactive) and the GI50 (HCC 2998) was > 100 µM (inactive). For the same molecule, the GI50 (SK-MEL-2) was > 100 µM (inactive), the GI50 (SF-539) was > 100 µM (inactive) and the GI50 (RXF 631) was > 100 µM (inactive). The GI50 (LXFL 529) was > 100 µM (inactive), the GI50 (HL-60) was > 100 µM (inactive) and the GI50 (SK-MEL-28) was > 100 µM (inactive). The GI50 (COLO 205) was > 100 µM (inactive), the GI50 (K562) was > 100 µM (inactive) and the GI50 (NCI-H226) was > 100 µM (inactive). For the same molecule, the GI50 (M19-MEL) was > 100 µM (inactive), the GI50 (OVCAR-4) was > 100 µM (inactive) and the GI50 (HOP-62) was > 100 µM (inactive). The GI50 (CAKI-1) was > 100 µM (inactive), the GI50 (Malme-3M) was > 100 µM (inactive) and the GI50 (HCT-116) was > 100 µM (inactive). For the same molecule, the GI50 (DLD-1) was > 100 µM (inactive), the GI50 (NCI-H522) was > 100 µM (inactive) and the GI50 (UACC-62) was > 100 µM (inactive).
